The text below walks through data of publication PMC9814929, “Control over the fibrillization yield by varying the oligomeric nucleation propensities of self-assembling peptides” (Communications Chemistry, 2020).

Data set [1] can be described thus: Solid-state NMR population profiling (dipolar CP and scalar INEPT spectra) of fibril and non-fibril assemblies. The format is physicochemical. Particulars: 4 mM, pH 7.4 in PBS, 3 days, 500 MHz, 10 kHz MAS, 280 K; for normalization scaling factor of the dipolar ssNMR spectrum relative to SLP1 (higher factor = lower fibrillization yield): dipolar CP spectra report on rigid 1D nanofibers. Here is the method: As a next step, we hypothesized that higher-resolution methods might disclose further differences in the properties of the SLP assemblies. To examine our hypothesis, we profiled the SLP1–4 assemblies using ssNMR spectroscopy. Using the same conditions (4 mM, pH 7.4 in PBS for 3 days), we acquired the so-called dipolar cross-polarization (CP) ssNMR spectra and so-called scalar INEPT ssNMR spectra on isotopically (^13C, ^15N) labeled SLP assemblies (see “Methods”), which enables to quantify rigid and mobile populations of peptide assemblies in the systems[36] (Fig. 3b). While dipolar signals report on immobilized peptides in 1D assemblies, scalar spectra report on peptides with fast pico-to-nanosecond dynamics, which can either be monomeric peptides or micellar oligomers[16],[32]. We specifically labeled residues in the hydrophobic tail (Val1–2 and Leu6–7) that are responsible for the self-assembly. […] The intensity of the dipolar spectra correlates with the amount of rigid cross-β structure present in the system. We observe that the intensities of dipolar signal of SLP1 is larger than SLP2 (normalization scaling factor of 10, Fig. 3b) and SLP3 (normalization scaling factor of 25, Fig. 3b), which indicate the relative fibrillization yield of SLP1 > SLP2 > SLP3. […]
1D CP[48] and scalar[49] ssNMR experiments to probe rigid and mobile populations, respectively, were acquired at 11.7 T magnetic field (500 MHz (^1H frequency) with 10 kHz magic angle spinning (MAS) and 280 K sample temperature. 2D ^13C–^13C and 2D CαN for peptide assignments were also performed at similar conditions. 2D Ca(N)H experiments for ^15NT1rho relaxation studies were performed at 950 MHz magnetic field strength with 60 kHz. ^13C was detected in the indirect dimension because of spectral overlap in the ^15N dimension. The 2D ^13C–^13C PARIS[37] experiment with the CPMAS CryoProbe[39] to measure intermolecular peptide contacts was performed at 600 MHz and 12 kHz MAS using 700 ms magnetization transfer and a ^1H recoupling amplitude of 6 kHz.

Test in data set [2]: not given
The source holds these as a separate data set.

Data set [3] is described as follows: Negative-staining TEM and AFM of the mesoscale structure of SLP assemblies. The format is physicochemical. Particulars: 4 mM, pH 7.4 in PBS. Here is the method: Next, we investigated the downstream effect of the differences in size of oligomeric particles and β-sheet propensities on the supramolecular self-assembly. One of the pivotal events in defining supramolecular self-assembly is whether nucleation has taken place or not. This can be identified by the mesoscale structures of the assemblies after certain time of incubation, e.g., the formation of one-dimensional (1D) nanostructures is indicative that nucleation has taken place. We used negative-staining transmission electron microscopy (TEM) and atomic force microscopy (AFM) to compare SLPs that were assembled under the same preparation protocol (4 mM, pH 7.4 in phosphate-buffered saline (PBS) for 3 days). We could indeed detect markedly different mesoscale structures in these SLP systems (Figs. 3a and S1). […] Based on these mesoscale evidences, we can deduce that nucleation occurred in SLP1–3, however, not in SLP4.
Peptide assemblies were prepared by dissolving peptide powders in nine volumes of 10 mM sodium hydroxide in 1.5 ml Eppendorf tube. One volume of PBS (10×) was added to make sample of pH 7.4 ± 0.2 and a final concentration of 4 mM. Solution was vortexed for 5 s and incubated statically for 3 days at room temperature before proceeding for measurements.
Samples prepared at 4 mM were diluted tenfold with 1× PBS. Formvar/carbon-coated 400 mesh copper grid (Polysciences Inc.) was placed on top of a droplet of 20 μl of diluted samples. After 2-min incubation, the grid was washed three times with […] filtered mili-Q water and blotted dry with filter paper. Negative staining was performed for 1 min with 2% w/v uranyl acetate in water. Staining solution was blotted off with filter paper. […]
AFM micrographs were recorded using a Bruker MultiMode 8 (ScanAsyst Air silicon nitride probes, spring constant 0.4 N/m, nominal tip radius 2 nm) and post-processed by a plane subtraction and line alignment. Three different spots (one in main text, two in Fig. S3) were measured on the sample to confirm uniformity and get a comprehensive view of the sample’s features.

Test in data set [4]: not given
This is another data set of the same source.

The conditions of data set [5]: larger oligomers or early nucleated structures; 1 µM Cy5-SLP in 4 mM unlabeled SLP, PBS pH 7.4; early assembly phase, measured after 5 min of preparatory work.
Method: To validate this hypothesis, we performed fluorescence correlation spectroscopy (FCS) measurements to study the diffusion properties of SLPs in the early phase of self-assembly. […] To explore these size differences in more detail, we fitted the FCS data with a higher-order fitting model. Maximum entropy method (MEM) was chosen to account for the polydispersity of the oligomers. Each condensed fraction was treated as one quasi-continuous distribution, so as to provide the widest data-complying size distribution (least chance of overinterpretation)[34].
The measurement concentration was 4 mM of SLPs in PBS (pH 7.4) of which 1 out of 4000 peptides was labeled with Cy5. The FCS autocorrelation curves were fitted with the maximum entropy method (MEM) for higher-resolution analysis on size distribution, indicated by the solid lines. c The size distribution of SLPs obtained from MEM analysis of the FCS measurements. The dashed line at D = 150 µm^2/s indicates the cut-off size between monomeric (D > 150) and oligomer (D < 150) populations.
Fluorescence time traces were obtained by focusing a 640-nm laser line through a water immersion objective lens (×60 Plan Apo VC, N.A. 1.2, Nikon, Japan) at ~50 µm above the bottom of the glass-bottom 96-well plate (Grainer Bio-one, Frickenhausen, Germany). […] After 5 min of preparatory work, 50 µl of sample was measured with confocal microscope (Nikon C1). […]
Test in data set [6]: not given
The source holds these as a separate data set.

The structures appear in SMILES notation. “And” between values parts separate entries of the source, which are not always exact repeats. Identical values can stand only once. Peptide text beside a SMILES is read from it.

`CC(=O)N[C@H](C(=O)N[C@H](C(=O)N[C@H](C(=O)N[C@H](C(=O)N[C@@H](CC(C)C)C(=O)N[C@@H](CC(C)C)C(=O)N[C@@H](CC(C)C)C(=O)N[C@@H](CCC(=O)O)C(=O)N[C@@H](CCC(=O)O)C(=O)O)[C@@H](C)O)C(C)C)C(C)C)C(C)C` [SLP2] (Ac-VVVTLLLEE-OH) came in with a nanofiber length of more than 1000 nm. Further, in data set [1], the “normalization scaling factor of the dipolar ssNMR spectrum relative to SLP1 (higher factor = lower fibrillization yield)” value is listed as 10. Besides, in data set [2], the XRD cross-β reflection was 4.7 Å.

For the compound `CC(=O)N[C@H](C(=O)N[C@H](C(=O)N[C@H](C(=O)N[C@H](C(=O)N[C@@H](CC(C)C)C(=O)N[C@@H](CC(C)C)C(=O)N[C@@H](CC(C)C)C(=O)N[C@@H](CCC(=O)O)C(=O)N[C@@H](CCC(=O)O)C(=O)N[C@@H](CCC(=O)O)C(=O)O)[C@@H](C)O)C(C)C)C(C)C)C(C)C` [SLP4] (Ac-VVVTLLLEEE-OH), the “dipolar ssNMR signals (immobile assemblies)” value in data set [1] is reported as “absent”. Also, in data set [3] (3 days static at room temperature), the “mesoscale structure of the assemblies (TEM, AFM)” value is given as “polydisperse zero-dimensional nanostructures”. In data set [3] (TEM/AFM, 3 days), the “diameter of the assembled nanostructures” value is given as 10–60 nm and the “nucleation event deduced from mesoscale structure” value is “no nucleation event has taken place”.

In turn, `CC[C@H](C)[C@H](NC(=O)[C@@H](NC(=O)[C@@H](NC(=O)[C@@H](NC(=O)[C@@H](NC(C)=O)C(C)C)C(C)C)C(C)C)[C@@H](C)O)C(=O)N[C@@H](CC(C)C)C(=O)N[C@@H](CC(C)C)C(=O)N[C@@H](CCC(=O)O)C(=O)N[C@@H](CCC(=O)O)C(=O)N[C@@H](CCC(=O)O)C(=O)O` [SLP3] (Ac-VVVTILLEEE-OH) had a nanofiber length of more than 1000 nm. In addition, the “normalization scaling factor of the dipolar ssNMR spectrum relative to SLP1 (higher factor = lower fibrillization yield)” value in data set [1] worked out at 25. In data set [4], this compound yielded a nanofiber diameter of 10 nm. For the same compound, the XRD cross-β reflection in data set [2] was 4.7 Å.

`CC[C@H](C)[C@H](NC(=O)[C@@H](NC(=O)[C@@H](NC(=O)[C@@H](NC(=O)[C@@H](NC(C)=O)C(C)C)C(C)C)C(C)C)[C@@H](C)O)C(=O)N[C@@H](CC(C)C)C(=O)N[C@@H](CC(C)C)C(=O)N[C@@H](CCC(=O)O)C(=O)N[C@@H](CCC(=O)O)C(=O)O` [SLP1] (Ac-VVVTILLEE-OH) had a nanofiber length of more than 1000 nm. Besides, in data set [4], the nanofiber diameter came out at 10 nm. Besides, the “diffusion coefficient of the SLP population (MEM analysis of FCS)” value in data set [5] is 0.1–1 µm^2/s. This compound showed an XRD cross-β reflection in data set [2] of 4.7 Å. For the same compound, the oligomer diffusion coefficient, fold smaller than SLP3–4 in data set [6] was 10 times and 10 fold.
